# Data: patent US20190292189A1, “LIM KINASE INHIBITORS” (VIRONGY, LLC, priority 2016, published 2019)
# Like-named read-outs stand apart in the source and are kept apart here.
# How the values were obtained:
# [1] = molecular target: P450 2C9 (Homo sapiens, UniProt P11712); test: P450 inhibition at 10 μM; type: in vitro ADME
# [2] = molecular target: ROCK-II (Homo sapiens, UniProt O75116); test: ROCK-II biochemical counter-screen; conditions: means of ≥2 experiments, read-out: IC50 (nM) ROCK-II
# [3] = molecular target: T1, P450 1A2 (Homo sapiens, UniProt P05177)
# T1 sequence (P05177 1-516): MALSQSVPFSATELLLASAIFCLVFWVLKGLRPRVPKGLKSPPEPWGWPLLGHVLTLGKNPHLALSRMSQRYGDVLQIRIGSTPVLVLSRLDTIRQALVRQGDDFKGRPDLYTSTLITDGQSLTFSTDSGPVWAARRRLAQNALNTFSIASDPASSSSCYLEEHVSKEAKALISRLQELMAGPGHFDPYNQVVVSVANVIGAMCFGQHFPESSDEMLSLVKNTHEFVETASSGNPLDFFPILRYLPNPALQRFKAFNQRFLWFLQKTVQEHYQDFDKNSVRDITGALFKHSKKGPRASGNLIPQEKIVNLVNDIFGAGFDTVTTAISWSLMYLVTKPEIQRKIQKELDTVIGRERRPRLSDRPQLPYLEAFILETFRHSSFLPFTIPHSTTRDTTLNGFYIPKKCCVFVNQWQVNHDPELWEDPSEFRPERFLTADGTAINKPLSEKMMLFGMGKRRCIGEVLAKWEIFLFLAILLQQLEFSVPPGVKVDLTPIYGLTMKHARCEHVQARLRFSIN
# [4] = molecular target: P450 2D6 (Homo sapiens, UniProt P10635); test: P450 inhibition at 10 μM; type: in vitro ADME
# [5] = molecular target: ROCK-I (Homo sapiens, UniProt Q13464); test: ROCK-I biochemical counter-screen; conditions: Table 6; read-out: Biochemical Inhibition IC50 (nM) ROCK-I
# [6] = molecular target: P450 3A4 (Homo sapiens, UniProt P08684); test: P450 inhibition at 10 μM; type: in vitro ADME
# [7] = Microsomal stability, rat liver microsomes; type: in vitro ADME
# [8] = system: cofilin phosphorylation in A7r5 cells; test: In-cell Western assay of cofilin phosphorylation in A7r5 cells; type: cell-based
# Experimental: A7r5 (15,000 cells/well) were plated in a clear-bottomed Packard View black 96-well plate in 100 μl of 10% FBS DMEM:F12 medium and were allowed to attach overnight. The next day, the cells were serum starved in 1% FBS DMEM medium for 2 hr and then treated with the compounds for 1 hr. […] Next day, they were washed twice with PBS-0.1% Tween 20 (PBST) washing solution for 5 min each at room temperature on the orbital shaker, followed by one wash with Licor Blocking Buffer containing 0.05% Tween-20 for 5 min on the shaker at RT. The cells were then incubated with secondary antibody goat anti-rabbit IR800 (1:500 dilution) for 1 hr at RT in the dark (covered the plate with foil) in Licor blocking buffer-containing Tween-20. Following this, cells were washed twice with PBST for 5 min each at room temperature and then once with Licor blocking buffer-containing 0.05% Tween-20. The wells were then incubated with ToPro 3 stain (nucleic acid staining), diluted 1:4000 in Licor blocking buffer or Licor blocking buffer with 0.05% Tween-20 for 30 min at room temperature in the dark. Finally the plates were washed twice with PBS and analyzed using the Odyssey LICOR Infrared Scanner.
# [9] = molecular target: Limk1 (Homo sapiens, UniProt P53667); test: Limk1 biochemical assay (Reaction Biology, 10-dose IC50); design: His; purchased Reaction Biology Corporation; host or cells: insect cells
# [10] = molecular target: JNK3 (Homo sapiens, UniProt P53779); test: JNK3 biochemical counter-screen; conditions: Table 6; read-out: Biochemical Inhibition IC50 (nM) JNK3
# [11] = Microsomal stability, human liver microsomes; type: in vitro ADME
# [12] = Plasma pharmacokinetics studies on rats; conditions: rats; for AUC (iv) / Cl (iv) / T1/2 (iv) / Yd (iv) / Cmax: iv dosing 1 mg/kg; for F (%) (po): po dosing 2 mg/kg; for Cmax: read-out: Cmax (iv)
# Experimental: In vivo pharmacokinetics (PK) studies were conducted for selected compounds during the whole optimization at various stages in order to identify structural elements that are favorable for in vivo applications, and/or to evaluate the feasibility of optimized Limk inhibitors for animal studies.
# [13] = system: HIV-1(NL4-3); test: microbe, parasite or virus in culture; type: cell-based; conditions: […]; dosages with no detectable cytotoxicity
# [14] = Table 4, means of ≥2 experiments, read-out: IC50 (nM) Limk1
# ROCK-II, sequence (O75116 whole entry, species assumed): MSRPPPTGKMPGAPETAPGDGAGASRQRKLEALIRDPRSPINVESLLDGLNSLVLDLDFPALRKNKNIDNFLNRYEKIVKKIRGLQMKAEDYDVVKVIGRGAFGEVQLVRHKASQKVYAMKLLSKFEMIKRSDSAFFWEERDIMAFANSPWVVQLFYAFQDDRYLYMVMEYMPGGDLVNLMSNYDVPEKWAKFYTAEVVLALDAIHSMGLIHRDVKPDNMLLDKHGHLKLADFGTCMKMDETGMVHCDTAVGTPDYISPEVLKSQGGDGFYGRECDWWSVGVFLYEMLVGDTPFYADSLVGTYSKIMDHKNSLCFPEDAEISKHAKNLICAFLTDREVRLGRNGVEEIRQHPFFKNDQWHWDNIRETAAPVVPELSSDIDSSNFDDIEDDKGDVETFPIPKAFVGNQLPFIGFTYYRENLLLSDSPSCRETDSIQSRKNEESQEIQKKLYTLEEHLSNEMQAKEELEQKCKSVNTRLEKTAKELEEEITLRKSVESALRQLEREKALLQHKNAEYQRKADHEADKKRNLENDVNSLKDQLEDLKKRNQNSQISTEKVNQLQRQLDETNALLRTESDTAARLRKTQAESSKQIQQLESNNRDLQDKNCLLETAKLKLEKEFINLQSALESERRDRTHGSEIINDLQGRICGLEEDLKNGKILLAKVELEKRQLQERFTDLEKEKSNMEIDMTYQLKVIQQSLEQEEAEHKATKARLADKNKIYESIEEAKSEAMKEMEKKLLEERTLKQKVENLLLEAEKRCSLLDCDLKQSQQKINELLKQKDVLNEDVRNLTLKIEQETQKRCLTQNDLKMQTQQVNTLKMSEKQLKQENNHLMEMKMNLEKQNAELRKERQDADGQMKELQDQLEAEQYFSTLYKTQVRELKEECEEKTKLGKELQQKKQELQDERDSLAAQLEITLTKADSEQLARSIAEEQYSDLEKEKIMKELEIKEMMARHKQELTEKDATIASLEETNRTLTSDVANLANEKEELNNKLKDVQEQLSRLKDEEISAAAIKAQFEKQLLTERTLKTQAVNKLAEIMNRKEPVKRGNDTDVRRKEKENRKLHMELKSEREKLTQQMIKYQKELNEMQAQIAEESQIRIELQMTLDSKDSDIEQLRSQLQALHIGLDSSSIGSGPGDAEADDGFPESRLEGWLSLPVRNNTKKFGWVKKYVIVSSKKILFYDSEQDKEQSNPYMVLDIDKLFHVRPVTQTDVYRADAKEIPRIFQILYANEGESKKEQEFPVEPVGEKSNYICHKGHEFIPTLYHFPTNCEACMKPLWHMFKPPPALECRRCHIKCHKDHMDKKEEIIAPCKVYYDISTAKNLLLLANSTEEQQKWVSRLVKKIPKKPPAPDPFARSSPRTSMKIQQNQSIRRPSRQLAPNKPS
# P450 3A4, sequence (P08684 whole entry): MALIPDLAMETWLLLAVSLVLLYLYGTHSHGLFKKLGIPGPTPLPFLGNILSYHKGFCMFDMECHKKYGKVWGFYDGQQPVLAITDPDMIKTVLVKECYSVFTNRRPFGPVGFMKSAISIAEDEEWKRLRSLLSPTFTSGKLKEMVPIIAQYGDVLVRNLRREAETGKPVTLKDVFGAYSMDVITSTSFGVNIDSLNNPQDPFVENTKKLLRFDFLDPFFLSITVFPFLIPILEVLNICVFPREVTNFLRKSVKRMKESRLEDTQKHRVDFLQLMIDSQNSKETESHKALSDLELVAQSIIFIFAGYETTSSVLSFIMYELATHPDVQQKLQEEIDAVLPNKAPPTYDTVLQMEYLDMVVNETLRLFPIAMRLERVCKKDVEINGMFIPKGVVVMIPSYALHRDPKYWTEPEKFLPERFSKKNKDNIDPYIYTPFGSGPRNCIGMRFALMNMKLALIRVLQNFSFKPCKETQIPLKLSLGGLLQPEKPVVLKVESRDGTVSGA
# JNK3, sequence (P53779 whole entry, species assumed): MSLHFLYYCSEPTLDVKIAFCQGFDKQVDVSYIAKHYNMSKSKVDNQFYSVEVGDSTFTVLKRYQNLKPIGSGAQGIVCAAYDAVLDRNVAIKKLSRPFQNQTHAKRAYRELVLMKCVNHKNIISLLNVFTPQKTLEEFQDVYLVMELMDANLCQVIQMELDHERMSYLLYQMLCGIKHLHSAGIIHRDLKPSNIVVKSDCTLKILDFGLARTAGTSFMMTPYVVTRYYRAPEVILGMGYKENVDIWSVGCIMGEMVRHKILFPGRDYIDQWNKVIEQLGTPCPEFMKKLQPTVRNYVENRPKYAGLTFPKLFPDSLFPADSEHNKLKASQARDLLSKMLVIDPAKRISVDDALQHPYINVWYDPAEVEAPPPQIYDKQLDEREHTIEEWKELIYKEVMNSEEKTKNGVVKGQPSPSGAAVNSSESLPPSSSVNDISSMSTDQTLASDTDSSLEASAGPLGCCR
# P450 2C9, sequence (P11712 whole entry): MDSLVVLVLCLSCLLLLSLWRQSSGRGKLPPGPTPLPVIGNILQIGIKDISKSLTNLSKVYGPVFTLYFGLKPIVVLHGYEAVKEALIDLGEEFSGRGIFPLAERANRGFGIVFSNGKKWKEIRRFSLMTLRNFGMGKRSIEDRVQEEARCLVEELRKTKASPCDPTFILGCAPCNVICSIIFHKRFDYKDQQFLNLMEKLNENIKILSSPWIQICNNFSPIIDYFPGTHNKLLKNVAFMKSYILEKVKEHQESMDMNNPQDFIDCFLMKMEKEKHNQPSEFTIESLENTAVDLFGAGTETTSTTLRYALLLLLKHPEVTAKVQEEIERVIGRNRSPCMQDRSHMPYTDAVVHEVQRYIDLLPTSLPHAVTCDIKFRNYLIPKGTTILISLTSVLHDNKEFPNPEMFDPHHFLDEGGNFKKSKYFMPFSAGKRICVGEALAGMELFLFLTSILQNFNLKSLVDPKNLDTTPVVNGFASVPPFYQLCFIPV
# Limk1, sequence (P53667 285-638): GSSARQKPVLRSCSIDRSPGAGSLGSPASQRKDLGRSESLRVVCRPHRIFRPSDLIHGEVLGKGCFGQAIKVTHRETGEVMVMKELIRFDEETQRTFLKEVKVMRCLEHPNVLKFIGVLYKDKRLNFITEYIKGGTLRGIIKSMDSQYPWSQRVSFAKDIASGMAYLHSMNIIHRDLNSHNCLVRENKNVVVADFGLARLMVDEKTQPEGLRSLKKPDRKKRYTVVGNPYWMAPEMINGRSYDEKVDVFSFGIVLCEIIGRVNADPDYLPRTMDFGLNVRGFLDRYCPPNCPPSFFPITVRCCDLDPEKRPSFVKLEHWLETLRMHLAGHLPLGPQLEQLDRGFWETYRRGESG
# P450 2D6, sequence (P10635 whole entry): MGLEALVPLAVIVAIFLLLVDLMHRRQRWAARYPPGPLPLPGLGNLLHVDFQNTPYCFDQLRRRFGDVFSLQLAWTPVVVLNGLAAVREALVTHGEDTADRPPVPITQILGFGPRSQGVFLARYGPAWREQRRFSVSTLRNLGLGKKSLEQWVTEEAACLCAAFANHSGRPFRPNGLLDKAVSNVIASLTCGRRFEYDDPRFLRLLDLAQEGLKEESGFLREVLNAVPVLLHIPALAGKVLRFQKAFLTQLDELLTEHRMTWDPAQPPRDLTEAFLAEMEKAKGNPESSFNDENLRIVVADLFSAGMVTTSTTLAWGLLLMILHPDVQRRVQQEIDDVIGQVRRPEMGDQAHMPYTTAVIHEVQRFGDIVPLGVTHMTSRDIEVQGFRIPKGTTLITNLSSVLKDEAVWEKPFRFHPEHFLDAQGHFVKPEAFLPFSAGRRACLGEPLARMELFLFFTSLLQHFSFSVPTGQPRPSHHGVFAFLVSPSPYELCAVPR
# ROCK-I, sequence (Q13464 whole entry, species assumed): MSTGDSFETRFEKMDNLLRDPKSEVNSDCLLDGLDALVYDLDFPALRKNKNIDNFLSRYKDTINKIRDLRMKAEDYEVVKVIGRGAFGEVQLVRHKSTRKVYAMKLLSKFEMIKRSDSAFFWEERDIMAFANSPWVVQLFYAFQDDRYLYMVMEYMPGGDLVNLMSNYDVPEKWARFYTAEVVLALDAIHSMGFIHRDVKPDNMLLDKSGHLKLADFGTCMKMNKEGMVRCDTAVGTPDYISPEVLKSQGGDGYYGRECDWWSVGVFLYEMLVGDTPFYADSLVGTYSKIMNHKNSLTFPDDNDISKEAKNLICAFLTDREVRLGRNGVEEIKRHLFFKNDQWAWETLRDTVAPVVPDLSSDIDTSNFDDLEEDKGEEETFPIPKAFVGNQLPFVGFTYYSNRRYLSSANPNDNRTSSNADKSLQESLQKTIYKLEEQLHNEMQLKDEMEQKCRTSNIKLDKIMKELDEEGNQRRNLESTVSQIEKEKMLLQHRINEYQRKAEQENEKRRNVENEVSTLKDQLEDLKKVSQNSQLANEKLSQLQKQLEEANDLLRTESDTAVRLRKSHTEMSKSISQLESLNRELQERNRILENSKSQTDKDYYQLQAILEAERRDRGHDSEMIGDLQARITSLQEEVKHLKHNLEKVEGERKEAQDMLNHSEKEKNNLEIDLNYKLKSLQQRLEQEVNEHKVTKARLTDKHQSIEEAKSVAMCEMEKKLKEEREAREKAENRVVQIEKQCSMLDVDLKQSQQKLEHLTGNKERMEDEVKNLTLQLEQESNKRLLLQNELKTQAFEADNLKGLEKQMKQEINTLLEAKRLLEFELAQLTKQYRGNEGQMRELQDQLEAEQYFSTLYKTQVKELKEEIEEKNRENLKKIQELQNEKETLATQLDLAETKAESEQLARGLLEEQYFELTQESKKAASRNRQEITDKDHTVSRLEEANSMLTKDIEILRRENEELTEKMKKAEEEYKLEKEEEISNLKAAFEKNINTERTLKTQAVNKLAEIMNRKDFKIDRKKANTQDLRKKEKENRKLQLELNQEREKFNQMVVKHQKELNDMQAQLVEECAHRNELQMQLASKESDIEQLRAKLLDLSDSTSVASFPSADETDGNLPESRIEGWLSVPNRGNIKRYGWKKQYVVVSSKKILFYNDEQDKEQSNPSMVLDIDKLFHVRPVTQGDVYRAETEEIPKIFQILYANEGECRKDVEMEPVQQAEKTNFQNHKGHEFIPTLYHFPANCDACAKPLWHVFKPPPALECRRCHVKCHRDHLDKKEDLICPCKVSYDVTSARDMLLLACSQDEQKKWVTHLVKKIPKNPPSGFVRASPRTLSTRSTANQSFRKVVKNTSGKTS
AUC (iv) [12],Cl (iv) [12],T1/2 (iv) [12],Cmax [12],SMILES,P450 % inh. at 10 μM 2C9 [1],IC50 ([2]; Table 4),P450 % inh. at 10 μM 2D6 [4],IC50 [5],P450 % inh. at 10 μM 3A4 [6],P450 % inh. at 10 μM 1A2 ([3]; 10 μM),IC50 [10],Microsomal Stability t1/2 (min) Rat ([7]; rat liver microsomes),Microsomal Stability t1/2 (min) Human [11],X4 HIV infection (screen) [13],"IC50 ([9]; Table 8, read-out: LIMK1 IC50)",also measured
,,,,"Cc1c[nH]c2ncnc(-c3ccc(NC(=O)N(CCO)c4cccc(Cl)c4)cc3)c12 [Compound 18g, 1-(3-Chlorophenyl)-1-(2-hydroxyethyl)-3-(4-(5-methyl-7H-pyrrolo[2,3-d]pyrimidin-4-yl)phenyl)urea]",31%,11300 nM,2%,15000 nM,42%,,,,,,,"P450 % inh. at 10 μM 1A2 [3]: −19/31/2/42%; Microsomal Stability t1/2 (min) Rat [7]: 20 min; IC50 ([8]; A7R5, read-out: Cofilin Phosphorylation In A7r5 Cells (IC50, nM)): 372 nM; IC50 [9, 14]: 67 nM"
,,,,"Cc1[nH]c2ncnc(-c3ccc(NC(=O)N(CCN)c4ccc(Cl)cc4)c(F)c3)c2c1C [Compound 18t, 1-(2-Amino-ethyl)-1-(4-chloro-phenyl)-3-[4-(5,6-dimethyl-7H-pyrrolo[2,3-d]pyrimidin-4-yl)-2-fluoro-phenyl]-urea]",24%,,52%,,−11%,24%,> 10000 nM,>120 min,>120 min,,,
,,,,Cc1c[nH]c2ncnc(N3CCC(c4nc5cc(C#N)ccc5[nH]4)CC3)c12 [Compound R8212],,,,,,,,,,blocked,44 ± 6 nM,
,,,,CCOC(=O)c1ccc2nc(N3CCN(c4ncnc5[nH]cc(Cl)c45)[C@H](C)C3)[nH]c2c1 [Compound R10659],,,,,,,,,,blocked,45 ± 6 nM,
19.4 µM·h,2.1 mL/min/kg,2.2 h,10.6 µM,"COc1ccc(N(CCO)C(=O)Nc2ccc(-c3ncnc4[nH]cc(C)c34)cc2)cc1 [Compound 18n, 1-(2-hydroxyethyl)-1-(4-methoxyphenyl)-3-(4-(5-methyl-7H-pyrrolo[2,3-d]pyrimidin-4-yl)phenyl)urea]",,> 10000 nM,,> 20000 nM,,,> 10000 nM,40 min,56 min,,,"IC50 [9, 14]: 53 nM"
,,,,"Cc1c[nH]c2ncnc(-c3ccc(NC(=O)N(CCO)c4ccc(F)cc4)cc3)c12 [Compound 18e, 1-(4-Fluorophenyl)-1-(2-hydroxyethyl)-3-(4-(5-methyl-7H-pyrrolo[2,3-d]pyrimidin-4-yl)phenyl)urea]",13%,3240 nM,3%,3920 nM,25%,−4%,> 10000 nM,52 min,44 min,,,
,,,,CC1(c2nc3ccc(C(=O)NC4CCC4)cc3[nH]2)CCN(c2ncnc3[nH]ccc23)CC1 [Compound R8482],,,,,,,,,,blocked,41 ± 4 nM,
,,,,"COc1cccc(N(CCO)C(=O)Nc2ccc(-c3ncnc4[nH]cc(C)c34)cc2)c1 [Compound 18m, 1-(2-Hydroxyethyl)-1-(3-methoxyphenyl)-3-(4-(5-methyl-7H-pyrrolo[2,3-d]pyrimidin-4-yl)phenyl)urea]",17%,3220 nM,3%,4320 nM,44%,,,21 min,38 min,,,"P450 % inh. at 10 μM 1A2 [3]: 3/17/3/44%; IC50 [9, 14]: 100 nM"
5.5 µM·h,7.1 mL/min/kg,1.5 h,5.1 µM,"Cc1c[nH]c2ncnc(-c3ccc(NC(=O)Nc4cccc(C(=O)NC(C)C)c4)c(F)c3)c12 [Compound 7k, 3-(3-(2-Fluoro-4-(5-methyl-7H-pyrrolo[2,3-d]pyrimidin-4-yl)phenyl)ureido)-N-isopropylbenzamide]",35%,,13%,2390 nM,32%,29%,,55 min,27 min,,,IC50 ([2]; Table 2): 781 nM; Yd (iv) [12]: 0.7 L/kg; F (%) (po) [12]: 0%; IC50 ([9]; read-out: Limk1 IC50): 18 nM
,,,,Cc1c[nH]c2ncnc(-c3ccc(-c4nc5ccc(C(=O)NC6CCCC6)cc5[nH]4)c(F)c3)c12 [Compound R8584],,,,,,,,,,blocked,50 ± 7 nM,
13.2 µM·h,3.0 mL/min/kg,2.6 h,10.5 µM,"Cc1c[nH]c2ncnc(-c3ccc(NC(=O)N(CCO)c4ccc(Cl)cc4)cc3)c12 [Compound 18h, 1-(4-Chlorophenyl)-1-(2-hydroxyethyl)-3-(4-(5-methyl-7H-pyrrolo[2,3-d]pyrimidin-4-yl)phenyl)urea]",23%,4360 nM,,5920 nM,27%,,> 10000 nM,73 min,>120 min,,,"IC50 ([8]; A7R5, A7r5 cells, read-out: Cofilin Phosphorylation In A7r5 Cells (IC50)): ~100 nM"
,,,,CC(C)NC(=O)c1ccc2[nH]c(N3CCN(c4ncnc5[nH]cc(Cl)c45)C[C@@H]3C)nc2c1 [Compound R10543],,,,,,,,,,blocked,5 ± 2 nM,

SMILES,AUC (iv) [12],Cl (iv) [12],T1/2 (iv) [12],Cmax [12],P450 % inh. at 10 μM 2C9 [1],IC50 ([2]; Table 4),P450 % inh. at 10 μM 2D6 [4],IC50 [5],P450 % inh. at 10 μM 3A4 [6],P450 % inh. at 10 μM 1A2 ([3]; 10 μM),IC50 [10],Microsomal Stability t1/2 (min) Rat ([7]; rat liver microsomes),Microsomal Stability t1/2 (min) Human [11],X4 HIV infection (screen) [13],"IC50 ([9]; Table 8, read-out: LIMK1 IC50)",also measured
"Cc1ccc(N(CCO)C(=O)Nc2ccc(-c3ncnc4[nH]cc(C)c34)cc2)cc1 [Compound 18k, 1-(2-Hydroxyethyl)-3-(4-(5-methyl-7H-pyrrolo[2,3-d]pyrimidin-4-yl)phenyl)-1-p-tolylurea]",15.6 µM·h,2.7 mL/min/kg,1.8 h,9.4 µM,24%,5930 nM,−4%,7630 nM,5%,−5%,> 10000 nM,39 min,56 min,,,"Yd (iv) [12]: 0.3 L/kg; F (%) (po) [12]: 24%; IC50 [9, 14]: 37 nM"
"Cc1[nH]c2ncnc(-c3ccc(NC(=O)N(CCO)c4ccc(Cl)cc4)c(F)c3)c2c1C [Compound 18s, 1-(4-Chlorophenyl)-3-(4-(5,6-dimethyl-7H-pyrrolo[2,3-d]pyrimidin-4-yl)-2-fluorophenyl)-1-(2-hydroxyethyl)urea]",14.5 µM·h,4.5 mL/min/kg,3.2 h,12.3 µM,13%,,8%,,16%,40%,> 10000 nM,44 min,99 min,,,Yd (iv) [12]: 0.5 L/kg; F (%) (po) [12]: 29%
